In patent US9169254B2, “Spiroimidazolone derivative” (Chugai Seiyaku Kabushiki Kaisha, priority 2009, dated 2015):

The compounds below were run against T1, human PTH1 receptor (Homo sapiens, UniProt Q03431) (assay: In vitro cAMP signal activity in HKRK-B7 cells (LLC-PK1 cells overexpressing the human PTH1 receptor)). Settings: HKRK-B7 cells; compound at 1×10^−3 M; cAMP produced as percentage of that produced by hPTH(1-34) at 100 nM.
T1 sequence (Q03431 27-593): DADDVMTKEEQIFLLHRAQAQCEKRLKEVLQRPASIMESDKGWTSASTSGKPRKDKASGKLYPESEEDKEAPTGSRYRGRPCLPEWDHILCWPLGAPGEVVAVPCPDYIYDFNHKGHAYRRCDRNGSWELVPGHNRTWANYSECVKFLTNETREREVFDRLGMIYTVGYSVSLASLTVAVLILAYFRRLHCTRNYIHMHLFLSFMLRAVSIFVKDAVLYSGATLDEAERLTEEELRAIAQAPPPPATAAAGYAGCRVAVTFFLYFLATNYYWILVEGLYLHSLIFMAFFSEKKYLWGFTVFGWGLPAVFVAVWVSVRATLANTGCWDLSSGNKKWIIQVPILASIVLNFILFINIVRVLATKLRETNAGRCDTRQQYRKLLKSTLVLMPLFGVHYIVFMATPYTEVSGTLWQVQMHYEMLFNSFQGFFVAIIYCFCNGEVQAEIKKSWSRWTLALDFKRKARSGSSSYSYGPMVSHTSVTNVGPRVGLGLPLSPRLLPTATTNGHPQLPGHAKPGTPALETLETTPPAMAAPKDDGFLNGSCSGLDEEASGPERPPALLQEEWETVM
Format: cell-based
With `CC(=O)NCCc1ccc(/C=C/S(=O)(=O)N2CCC3(CC2)N=C(C2CCCCC2)NC3=O)cc1` [Compound 481, N-(2-{4-[(E)-2-(2-cyclohexyl-4-oxo-1,3,8-triaza-spiro[4.5]dec-1-ene-8-sulfonyl)-vinyl]-phenyl}-ethyl)-acetamide] the “cAMP production activity (%)” value was 59%. For `Cc1cc(N(C)C(N)=O)cc(C)c1CCS(=O)(=O)N1CCC2(CC1)N=C(c1ccc(CCCC(F)(F)F)cc1)NC2=O` [Compound 1358, 1-[3,5-dimethyl-4-(2-{4-oxo-2-[4-(4,4,4-trifluoro-butyl)-phenyl]-1,3,8-triaza-spiro[4.5]dec-1-ene-8-sulfonyl}-ethyl)-phenyl]-1-methyl-urea], the “cAMP production activity (%)” value was 153%. `CCCc1ccc(-c2cccc(C3=NC4(CCN(S(=O)(=O)/C=C/c5c(C)cc(N(C)C(N)=O)cc5C)CC4)C(=O)N3)c2)cc1` [Compound 1114, 1-(3,5-Dimethyl-4-{(E)-2-[4-oxo-2-(4′-propyl-biphenyl-3-yl)-1,3,8-triaza-spiro[4.5]dec-1-ene-8-sulfonyl]-vinyl}-phenyl)-1-methyl-urea] was tested, and the “cAMP production activity (%)” value was 95%. For `CCCCCCCCCC1=NC2(CCN(S(=O)(=O)CCc3ccc(N4C(=O)CNC4=O)cc3C)CC2)C(=O)N1` [Compound 790, 3-{3-methyl-4-[2-(2-nonyl-4-oxo-1,3,8-triaza-spiro[4.5]dec-1-ene-8-sulfonyl)-ethyl]-phenyl}-imidazolidine-2,4-dione], the “cAMP production activity (%)” value was 88%. `O=C1NC(C2CCC(CF)CC2)=NC12CCN(S(=O)(=O)c1cccc(Cl)c1)CC2` (stereo not drawn) [Compound 27, 8-(3-chloro-benzenesulfonyl)-2-(4-fluoromethyl-cyclohexyl)-1,3,8-triaza-spiro[4.5]dec-1-en-4-one] was tested, and the “cAMP production activity (%)” value was 42%. `Cc1cc(C(=O)N2CCC(O)(CF)CC2)cc(C)c1CCS(=O)(=O)N1CCC2(CC1)N=C(c1ccc3c(c1)OC(F)(F)C(F)(F)O3)NC2=O` [Compound 1281, 8-{2-[4-(4-fluoromethyl-4-hydroxy-piperidine-1-carbonyl)-2,6-dimethyl-phenyl]-ethanesulfonyl}-2-(2,2,3,3-tetrafluoro-2,3-dihydro-benzo[1,4]dioxin-6-yl)-1,3,8-triaza-spiro[4.5]dec-1-en-4-one] was tested, and the “cAMP production activity (%)” value was 95%. With `Cc1cc(N2C(=O)CNC2=O)ccc1CCS(=O)(=O)N1CCC2(CC1)N=C(C1CCC(CCC(F)(F)F)CC1)NC2=O` (stereo not drawn) [Compound 943, 3-[3-Methyl-4-(2-{4-oxo-2-[4-(3,3,3-trifluoro-propyl)-cyclohexyl]-1,3,8-triaza-spiro[4.5]dec-1-ene-8-sulfonyl}-ethyl)-phenyl]-imidazolidine-2,4-dione] the “cAMP production activity (%)” value was 74%. With `Cc1cc(S(=O)(=O)NCC(F)(F)F)ccc1CCS(=O)(=O)N1CCC2(CC1)N=C(c1cccc(C(F)(F)F)c1)NC2=O` [Compound 290, 3-methyl-4-{2-[4-oxo-2-(3-trifluoromethyl-phenyl)-1,3,8-triaza-spiro[4.5]dec-1-ene-8-sulfonyl]-ethyl}-N-(2,2,2-trifluoro-ethyl)-benzenesulfonamide] the “cAMP production activity (%)” value was 76%. For `Cc1cc(NCCO)ccc1CCS(=O)(=O)N1CCC2(CC1)N=C(c1ccc(C(F)(F)F)cc1)NC2=O` [Compound 161, 8-{2-[4-(2-hydroxy-ethylamino)-2-methyl-phenyl]-ethanesulfonyl}-2-(4-trifluoromethyl-phenyl)-1,3,8-triaza-spiro[4.5]dec-1-en-4-one], the “cAMP production activity (%)” value was 69%. In the case of `CC(C)COC(=O)NCc1ccc(CCS(=O)(=O)N2CCC3(CC2)N=C(C2CCCCC2)NC3=O)cc1` [Compound 658, {4-[2-(2-Cyclohexyl-4-oxo-1,3,8-triaza-spiro[4.5]dec-1-ene-8-sulfonyl)-ethyl]-benzyl}-carbamic acid isobutyl ester], the “cAMP production activity (%)” value is reported as 84%. With `Cc1cc(N2C(=O)CNC2=O)c(C)cc1/C=C/S(=O)(=O)N1CCC2(CC1)N=C(C1CCC(C)CC1)NC2=O` (stereo not drawn) [Compound 581, 3-(2,5-dimethyl-4-{(E)-2-[2-(4-methyl-cyclohexyl)-4-oxo-1,3,8-triaza-spiro[4.5]dec-1-ene-8-sulfonyl]-vinyl}-phenyl)-imidazolidine-2,4-dione] the “cAMP production activity (%)” value was 75%. For `CNC(=O)c1ccc(C)c(CCS(=O)(=O)N2CCC3(CC2)N=C(c2cccc(OC(F)(F)F)c2)NC3=O)c1` [Compound 415, 4,N-dimethyl-3-{2-[4-oxo-2-(3-trifluoromethoxy-phenyl)-1,3,8-triaza-spiro[4.5]dec-1-ene-8-sulfonyl]-ethyl}-benzamide], the “cAMP production activity (%)” value was 56%. `O=C1NC(CCCCCCCC(F)(F)C(F)(F)F)=NC12CCN(S(=O)(=O)/C=C/c1cccc3c1ccn3C[C@H](O)CO)CC2` [Compound 623, 8-{(E)-2-[1-((S)-2,3-Dihydroxy-propyl)-1H-indol-4-yl]-ethenesulfonyl}-2-(8,8,9,9,9-pentafluoro-nonyl)-1,3,8-triaza-spiro[4.5]dec-1-en-4-one] was tested, and the “cAMP production activity (%)” value was 123%. With `Cc1cc(OCCC(O)CO)ccc1/C=C/S(=O)(=O)N1CCC2(CC1)N=C(c1cccc(C(F)(F)F)c1F)NC2=O` (stereo not drawn) [Compound 247, 8-{(E)-2-[4-(3,4-Dihydroxy-butoxy)-2-methyl-phenyl]-ethenesulfonyl}-2-(2-fluoro-3-trifluoromethyl-phenyl)-1,3,8-triaza-spiro[4.5]dec-1-en-4-one] the “cAMP production activity (%)” value was 81%. For `COC(=O)NCCc1ccc(CCS(=O)(=O)N2CCC3(CC2)N=C(C2CCCCC2)NC3=O)cc1` [Compound 672, (2-{4-[2-(2-Cyclohexyl-4-oxo-1,3,8-triaza-spiro[4.5]dec-1-ene-8-sulfonyl)-ethyl]-phenyl}-ethyl)-carbamic acid methyl ester], the “cAMP production activity (%)” value was 47%. `Cc1cc(C(=O)N2CCC(O)(CF)CC2)ccc1CCS(=O)(=O)N1CCC2(CC1)N=C([C@H]1CC[C@H](CC=C(F)F)CC1)NC2=O` [Compound 974, 2-[4-(3,3-difluoro-allyl)-cyclohexyl]-8-{2-[4-(4-fluoromethyl-4-hydroxy-piperidine-1-carbonyl)-2-methyl-phenyl]-ethanesulfonyl}-1,3,8-triaza-spiro[4.5]dec-1-en-4-one] was tested, and the “cAMP production activity (%)” value was 111%. In the case of `CN(C)C(=O)c1cccc(C2=NC3(CCN(S(=O)(=O)c4cccc(Cl)c4)CC3)C(=O)N2)c1` [Compound 351, 3-[8-(3-chloro-benzenesulfonyl)-4-oxo-1,3,8-triaza-spiro[4.5]dec-1-en-2-yl]-N,N-dimethyl-benzamide], the “cAMP production activity (%)” value is reported as 7.4%. `Cc1cc(C(=O)N2CCC(O)(CF)CC2)cc(C)c1/C=C/S(=O)(=O)N1CCC2(CC1)N=C(c1ccc(C(F)(F)C(F)(F)F)cc1)NC2=O` [Compound 1244, 8-{(E)-2-[4-(4-fluoromethyl-4-hydroxy-piperidine-1-carbonyl)-2,6-dimethyl-phenyl]-ethenesulfonyl}-2-(4-pentafluoroethyl-phenyl)-1,3,8-triaza-spiro[4.5]dec-1-en-4-one] was tested, and the “cAMP production activity (%)” value was 96%.
